Test results from the NIST ThermoML archive (doi:10.1021/je2012633).

Legend:
[1] = 101 kPa, Liquid, Vibrating tube method
[2] = xn = mol fraction of the nth substance listed; details: 101 kPa, Liquid, Vibrating tube method

CCOS(=O)(=O)[O-].CCn1cc[n+](C)c1 [1-ethyl-3-methylimidazolium ethyl sulfate]
[1]
Details | mass density [kg/m3]
288.15 K | 1245.3
298.15 K | 1238.3
308.15 K | 1231.6
318.15 K | 1224.9

CCCCCCCCOS(=O)(=O)[O-].CCn1cc[n+](C)c1 [1-ethyl-3-methylimidazolium octyl sulfate]
[1]
Details | mass density [kg/m3]
288.15 K | 1100.7
298.15 K | 1093.8
308.15 K | 1087
318.15 K | 1080.5

CCCCCCOS(=O)(=O)[O-].CC[n+]1ccn(C)c1 [3-ethyl-1-methyl-1H-imidazolium hexyl sulfate]
[1]
Details | mass density [kg/m3]
288.15 K | 1136.6
298.15 K | 1129.6
308.15 K | 1123.1
318.15 K | 1116.6

CCCCOS(=O)(=O)[O-].CC[n+]1ccn(C)c1 [3-ethyl-1-methylimidazolium butyl sulfate]
[1]
Details | mass density [kg/m3]
288.15 K | 1182.5
298.15 K | 1175.7
308.15 K | 1169
318.15 K | 1162.4

CCCCOS(=O)(=O)[O-].CC[n+]1ccn(C)c1 [3-ethyl-1-methylimidazolium butyl sulfate] + CCO
mass density [kg/m3], [2]
Details | 288.15 K | 298.15 K | 308.15 K | 318.15 K
x1 = 0.0498 | 864.5 | 856.2 | 847.9 | 839.5
x1 = 0.0989 | 915.1 | 907.1 | 898.9 | 890.9
x1 = 0.1938 | 987 | 979.3 | 971.6 | 963.8
x1 = 0.2904 | 1037.4 | 1030 | 1022.4 | 1014.8
x1 = 0.3812 | 1072.1 | 1064.8 | 1057.6 | 1050.4
x1 = 0.4691 | 1098.2 | 1091 | 1083.9 | 1076.9
x1 = 0.4993 | 1105.9 | 1098.8 | 1091.1 | 1083.7
x1 = 0.5699 | 1122 | 1114.9 | 1107.9 | 1101
x1 = 0.6866 | 1143.7 | 1136.7 | 1129.7 | 1122.8
x1 = 0.7858 | 1158.4 | 1151.6 | 1144.7 | 1138
x1 = 0.8794 | 1169.9 | 1163.1 | 1156.3 | 1149.6
x1 = 1 | 1182.5 | 1175.7 | 1169 | 1162.4

CCCCOS(=O)(=O)[O-].CC[n+]1ccn(C)c1 [3-ethyl-1-methylimidazolium butyl sulfate] + O
mass density [kg/m3], [2]
Details | 288.15 K | 298.15 K | 308.15 K | 318.15 K
x1 = 0.0526 | 1081 | 1075.8 | 1069.6 | 1063.2
x1 = 0.0987 | 1114.3 | 1107.5 | 1100.5 | 1093.4
x1 = 0.2007 | 1146.1 | 1139.1 | 1131.9 | 1124.7
x1 = 0.2973 | 1159.3 | 1152.3 | 1145.3 | 1138.3
x1 = 0.3957 | 1167.2 | 1160.2 | 1153.2 | 1146.3
x1 = 0.4866 | 1171.7 | 1164.8 | 1158 | 1151.1
x1 = 0.5868 | 1175 | 1168.4 | 1161.5 | 1154.7
x1 = 0.6909 | 1177.9 | 1171.1 | 1164.3 | 1157.6
x1 = 0.7872 | 1179.6 | 1172.9 | 1166.2 | 1159.5
x1 = 0.8922 | 1181.4 | 1174.5 | 1167.9 | 1161.2
x1 = 0.9416 | 1181.8 | 1175 | 1168.3 | 1161.7
x1 = 1 | 1182.5 | 1175.7 | 1169 | 1162.4

CCO [ethanol]
[1]
Details | mass density [kg/m3]
288.15 K | 794.4
298.15 K | 785.8
308.15 K | 777.1
318.15 K | 768.3

CCO [ethanol] + CCOS(=O)(=O)[O-].CCn1cc[n+](C)c1
[2], x2 = 0
Details | mass density [kg/m3]
288.15 K | 794.4
298.15 K | 785.8
308.15 K | 777.1
318.15 K | 768.3

O [water] + CCCCCCOS(=O)(=O)[O-].CC[n+]1ccn(C)c1
Details | mass density [kg/m3]
[2], 308.15 K, x2 = 0 | 994.1

O [water] + CCOS(=O)(=O)[O-].CCn1cc[n+](C)c1
Details | mass density [kg/m3]
[2], 308.15 K, x2 = 0 | 994.1
